Source: paper PMC2847825 (Biological chemistry, 2009)

Target: T1, phenylalanine hydroxylase (Rattus norvegicus, UniProt P04176)
T1 sequence (P04176 2-453): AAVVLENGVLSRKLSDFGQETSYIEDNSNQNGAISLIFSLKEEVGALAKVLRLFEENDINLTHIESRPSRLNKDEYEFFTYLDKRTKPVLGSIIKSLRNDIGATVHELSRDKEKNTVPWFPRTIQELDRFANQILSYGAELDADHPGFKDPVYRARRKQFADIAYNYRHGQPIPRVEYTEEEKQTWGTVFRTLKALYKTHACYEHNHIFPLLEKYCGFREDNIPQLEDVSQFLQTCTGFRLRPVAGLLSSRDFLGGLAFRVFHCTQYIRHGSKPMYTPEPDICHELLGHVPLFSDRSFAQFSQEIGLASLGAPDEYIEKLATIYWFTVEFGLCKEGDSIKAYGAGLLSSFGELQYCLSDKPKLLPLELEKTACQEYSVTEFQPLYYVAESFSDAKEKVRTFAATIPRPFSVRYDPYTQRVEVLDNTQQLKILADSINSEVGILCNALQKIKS
Experiment: recombinant enzyme activity, HPLC detection of tyrosine
Assay type: biochemical

recombinant enzyme activity, HPLC detection of tyrosine: 0.01 mM
Structure (SMILES): c1cnc2c(c1)ccc1cccnc12 [1,10-phenanthroline]
